In EP0402734A2, “Composition for the treatment of application of the central nervous system and to enhance cerebral perfusion” (Dr. Karl Thomae GmbH, priority 1989, dated 1990):

What was measured:
[1] = molecular target: muscarinische Rezeptoren der Pia mater des Rindes; assay: Inhibition of 3H-NMS binding to muscarinic receptors in bovine pia mater vessel homogenate; set-up: species or system Rind; conditions: Hemmung der ³H-NMS-Bindung, 0,3 nM [³H]NMS, 45 min, room temperature
Protocol: A. Bindung verschiedener muskarinischer Antagonisten an Rezeptoren der Pia mater des Rindes
Die Pia-Gefäße von Rinder-Hirnen, erhalten vom lokalen Schlachthof, wurden präpariert und von Blutresten gereinigt. Je 0,5 g-Portionen wurden bei -80°C bis zur weiteren Verwendung gelagert. Zur Homogenatgewinnung wurden 0,5 g Pia-Gefäße mittels eines Gewebehackers zerkleinert, in 60 ml HEPES-Puffer (20 mM HEPES, 10 mM MgCl₂, 100 mM NaCl, pH 7,50) aufgenommen, mit einem Ultra-Turrax homogenisiert und 20 min. bei 0°C mit 48000 x g zentrifugiert. Das Pellet wurde erneut mit einem Ultra-Turrax homogenisiert, durch Mull filtriert und mit HEPES-Puffer auf eine Verdünnung von 1:140 bezogen auf das Feuchtgewicht der Gefäße verdünnt.
0,3 nM [³H]NMS (³H-N-Methylscopolamin) und steigende Konzentrationen des Antagonisten wurden mit dem Homogenat in einem Gesamtvolumen von 0,52 ml für 45 min. bei Raumtemperatur inkubiert. Der Inkubationsansatz wurde mit Hilfe eines Scatron Cell Harvesters über Glasfaser-Filtermatten filtriert und zweimal mit eiskalter physiologischer Kochsalzlösung gewaschen. Die Filter-gebundene Radioaktivität wurde in einem Flüssigkeitsszintillationszähler bestimmt. Als unspezifische Bindung wurde die gebundene Radioaktivität in Gegenwart von 10⁻⁶M (-)-Chinuclidinyl-benzilat definiert.

[2] = test system: inhibitorischen Autorezeptoren in hippocampalem Gewebe; assay: Transmitter release study: in vitro acetylcholine release from electrically stimulated hippocampal slices, antagonism of carbachol; format: cell-based, Ratten; conditions: rat hippocampal slices 0,4 mm, preloaded with ³H-Cholin, electrical stimulation 3 Hz, agonist Carbachol
From the text: B. Transmitter Release Studien
Die Versuche zur in-vitro Freisetzung von Acetylcholin aus hippocampalen Gewebeschnitten wurden in Analogie zu Anord nungen durchgeführt, die für die Freisetzung von 5-HT aus Hypothalamus- bzw. Hippocampus-Gewebe beschrieben sind (vgl. M.H. Richards, Naunyn Schmiedeberg's Arch. Pharmacol. 329, 359-366 (1985) und T.J. Feuerstein, G. Hertting und R. Jackisch, Europ. J. Pharmacol. 107, 233-242 (1985)).
Männliche Ratten (Stamm Chbb:Thom, Gewicht 200 bis 300 g) wurden ohne Vorbehandlung dekapitiert; das gesamte Gehirn wurde sofort entnommen und unter Eiskühlung zerlegt. Gemäß den oben beschriebenen Verfahren wurde der Hippocampus in 0,4 mm dicke Schnitte mit Hilfe eines McIlwain-Gewebehackers geschnitten. Die Gewebeschnitte wurden 30 Minuten lang bei 37°C vorincubiert in Gegenwart von 0,05 mM ³H-Cholin in Krebs-Henseleit Puffer der folgenden Zusammensetzung: 120 mM NaCl, 4,8 mM KCl, 1,3 mM CaCl₂, 1,2 mM KH₂PO₄, 1,2 mM MgSO₄ und 25 mM NaHCO₃. Der Puffer enthielt zusätzlich 2 g Glucose und 100 mg EDTA. Der Puffer wurde mit Natronlauge auf einen pH-Wert von 7,4 bei 20°C eingestellt. Alle Lösungen wurden kontinuierlich mit 95 % O₂ und 5 % CO₂ gesättigt. Die Gewebeschnitte wurden daraufhin gespült, jeder Gewebeschnitt wurde jeweils willkürlich auf 12 Superfusionseinheiten gegeben und mit der Pufferlösung bei 37°C bei einer Fließgeschwindigkeit von 1 ml/min überspült. Die Gewebeschnitte wurden jeweils von einem Polypropylennetzwerk zwischen zwei Platinelektroden gehalten. Nach 50-minütiger Überspülung wurden 4-Minuten-Fraktionen des Superfusats über eine gesamte Zeitdauer von 92 Minuten gesammelt. Die Gewebeschnitte wurden zweimal elektrisch stimuliert, und zwar 60 Minuten (S1) und 100 Minuten (S2) nach Beginn der Superfusion. Dabei wurden Rechteckimpulse von 2 ms Dauer und mit einer Frequenz von 3 Hz 100 Sekunden lang bei 5 V/cm und 24 mA mittels eines HSE Stimulators II der Firma Hugo Sachs Elektronik, Hugstetten, West-Deutschland, verabreicht. Die zu prüfenden Substanzen wurden dem Puffer ab 20 Minuten vor dem Zeitpunkt S2 zusammen mit dem Agonisten (Carbachol) beigefügt. Am Ende wurden die Gewebeschnitte aus den Kammern entfernt und zur Bestimmung des verbliebenen Tritiums solubilisiert. […]

Row | SMILES | -log IC₅₀ (M) [1] | ACh-Release aus Hippocampus-Gewebe (pA₂) [2]
1 | CCN(CC)CC1CCCCN1CC(=O)N1c2cc(Cl)ccc2C(=O)Nc2cccnc21 (racemic) [C, (±)-9-Chlor-11-[[2-[(diethylamino)methyl]-1-piperidinyl]acetyl]-5,11-dihydro-6H-pyrido[2,3-b][1,4]benzodiazepin-6-on] | 7,5 M | 7,3
2 | CCN(CC)CC1CCCCN1CC(=O)N1c2ccccc2C(=O)Nc2cccnc21 (single isomer, unassigned; (+)) [A, (+)-11-[[2-[(Diethylamino)methyl]-1-piperidinyl]acetyl]-5,11-dihydro-6H-pyrido[2,3-b][1,4]benzodiazepin-6-on] | 7,1 M | 7,15
3 | O=C1Nc2cccnc2N(C(=O)CCC#CCN2CCCCC2)c2ccccc21 [B, 5,11-Dihydro-11-[1-oxo-6-(1-piperidinyl)-4-hexin-1-yl]-6H-pyrido[2,3-b][1,4]benzodiazepin-6-on] | 6,9 M | 7,2
4 | CCCN(CCC)CC1CCCCN1CCNC(=O)N1c2ccccc2C(=O)Nc2cccnc21.CS(=O)(=O)O (centres unmarked) [D, 5,11-Dihydro-11-[[[2-[2-[(dipropylamino)methyl]-1-piperidinyl]ethyl]amino]carbonyl]-6H-pyrido[2,3-b][1,4]benzodiazepin-6-on-methansulfonat] | 7,9 M | 8,35
5 | O=C1Nc2cccnc2N(C(=O)N2CCCC(CCCN3CCCCC3)C2)c2ccccc21 (centres unmarked) [E, 5,11-Dihydro-11-[[3-[3-(1-piperidinyl)-1-propyl]-1-piperidinyl]carbonyl]-6H-pyrido[2,3-b][1,4]benzodiazepin-6-on] | 8,8 M | 9,55
6 | Cc1scc2c1N(C(=O)CN1CCC(CCCN3CCCCC3)CC1)c1ccccc1NC2=O [F, 4,9-Dihydro-3-methyl-4-[[4-[3-(1-piperidinyl)-1-propyl]-1-piperidinyl]acetyl]-10H-thieno[3,4-b][1,5]benzodiazepin-10-on] | 8,6 M | 7,7
7 | Cc1scc2c1N(C(=O)CCC#CCN1CCCCCC1)c1ccccc1NC2=O [H, 4,9-Dihydro-3-methyl-4-[6-(hexahydro-1H-1-azepinyl)-1-oxo-4-hexin-1-yl]-10H-thieno[3,4-b][1,5]benzodiazepin-10-on] | 8,0 M | 8,0
8 | CCN(CC)CC1COCCN1CCCC(=O)N1c2ccccc2C(=O)Nc2cccnc21 (centres unmarked) [I, 11-[4-[3-[(Diethylamino)methyl]-4-morpholinyl]-1-oxo-1-butyl]-5,11-dihydro-6H-pyrido[2,3-b][1,4]benzodiazepin-6-on] | 7,7 M | 7,5
9 | CN(CCC1CCCN1C)CC(=O)N1c2ccccc2C(=O)Nc2cccnc21 (centres unmarked) [K, 5,11-Dihydro-11-[[[2-(1-methyl-2-pyrrolidinyl)ethyl]methylamino]acetyl]-6H-pyrido[2,3-b][1,4]benzodiazepin-6-on] | 8,2 M | 8,5
10 | CN(CCC1CCCCCN1C)CC(=O)N1c2ccccc2C(=O)Nc2cccnc21 (centres unmarked) [L, 5,11-Dihydro-11-[[[2-(1-methyl-hexahydro-1H-2-azepinyl)ethyl]methylamino]acetyl]-6H-pyrido[2,3-b][1,4]benzodiazepin-6-on] | 8,4 M | 8,45
